Experimental data: a melting point compilation (Tetko et al.; mined from patent text by program, amines drawn as free bases though some values may be those of a salt)

| SMILES | melting point [°C] |
| --- | --- |
| COC1=C(c2ccc(C)cc2C)C(=O)CCC1 | 122 to 123 |
| Cc1csc(-c2cccnc2)n1 | 42 to 43 |
| N#CC(c1ccc(Cl)c(Cl)c1)c1c(Cl)cc(NN)cc1Cl (centres undefined) | 183 to 185 |
| CC(C)(C)C(=O)Nc1cnc(C(=O)CO)cn1 | 169 to 172 |
| N#CCCCCCc1nc(-c2ccc(Cl)cc2)c(-c2ccc(Cl)cc2)o1 | 108 |
| CC(C)(C)OC(=O)NC1Cc2cccc3[nH]c(=O)n(c23)C1 (centres undefined) | 235 to 236 |
| O=C(Nc1c(F)cccc1F)c1ccc(-n2nc(C(F)(F)F)cc2C2CC2)cc1 | 145 to 147 |
| CC(C)(C)C(=O)c1ccc(CC(=O)O)cc1 | 111 to 112 |
| CSc1ccc2sc(C(N)=O)c(N(C)C)c2c1 | 140 to 142 |
| FC(F)(F)c1cccc(C2=CCN(CCc3ccc4[nH]ccc4c3)CC2)c1 | 122 to 123 |
| CN1C(=O)C(Br)(Br)CC1c1cncc(Br)c1 (centres undefined) | 139 to 140 |
| COC(=O)C1=C(Cl)C(=O)CC(c2ccc(Cl)c(OC)c2F)N1 (centres undefined) | 127 to 129 |
| CCc1noc(-c2ncc3[nH]c4c(c3c2COC)CCCC4)n1 | 197 to 199 |
| C=CCn1c(CCl)nc(C(C)C)c1Sc1cccc(Cl)c1 | 84 to 86 |
| COC(=O)c1ccc2c(c1)OCC(=O)N2 | 258 to 260 |
| COc1c(C=O)c2cc(Cl)c(Cl)cc2n1C1OC(CO)C(O)C1O (centres undefined) | 198 to 199 |
| CC(C)(C)OC(=O)[C@H]1CC[C@@H](NC(=O)OCc2ccccc2)CC1 | 73 to 74 |
| O=S(=O)(c1cc(Br)c(-c2ccc(Cl)cc2)[nH]1)C(F)(F)F | 155 to 159 |
| CC(NC(=O)C1=C(C(=O)Nc2cc(OC3CCCC3)c(Cl)cc2F)CCCC1)c1ccccc1 (centres undefined) | 173 to 175 |
| CCOC(=O)/C(=N\OC(C)(CC)C(=O)OC(C)(C)C)c1csc(NC(c2ccccc2)(c2ccccc2)c2ccccc2)n1 (centres undefined) | 122 to 125 |
| O=C(CCl)Oc1ccc(OC(=O)CCl)cc1 | 127 to 128 |
| CCOC(=O)CN1C(=O)Nc2cccc(Cl)c2C1C (centres undefined) | 143 to 144 |

| SMILES | melting point [°C] |
| --- | --- |
| Cc1cn(C2CC(O)C(CO)(N=[N+]=[N-])O2)c(=O)[nH]c1=O (centres undefined) | 175 to 176 |
| COc1ccc(-c2c(O)c3ccc(Cl)cc3[nH]c2=O)cc1 | > 350 |
| c1ccc(N2CCN(c3ccccc3)C2Oc2ccc(C3N(c4ccccc4)CCN3c3ccccc3)cc2)cc1 | 218 to 221 |
| CS(=O)(=O)c1ccc(C(CC2CCCC2)C(=O)O)cc1 (centres undefined) | 152 to 154 |
| ON=C1CCCCCCC1Cc1ccccc1 (centres undefined) | 117 to 119 |
| Cc1sc(C(N)=O)c2c1-c1c(cnn1C)CC2 | 184 to 185 |
| CC(=O)NCP(=O)(O)O | 171 to 175 |
| CC(C)Oc1ccc(-c2cccs2)cc1C=O | 186 to 187 |
| CCc1c(OC)c(Cl)cc(C(N)=O)c1OC | 83 to 84 |
| Cc1cc(F)ccc1OC1CC(C#CC(C)N(O)C(N)=O)C1 (single isomer, unassigned; (+)) | 139 to 140 |
| CCCCCCCCCCCCCCOc1ccc([N+](=O)[O-])cc1 | 57 to 60 |
| COc1cc2c(cc1Br)CCC2=O | 149 to 151 |
| CC(C)(N)CNC(N)=O | 58 to 62 |
| CCOC(=O)Cn1nnnc1Cl | 57 to 60 |
| CC(=O)OC1N=C(c2ccccc2)c2cc(Cl)ccc2-c2c1nc(C)[nH]c2=O (centres undefined) | > 320 |
| COc1cc2c(cc1OC)-c1c(O)c(OC)cc3c1C(C2)CN(C(=O)C(F)(F)F)C3 (centres undefined) | 210 to 217 |
| COc1ccc(C2c3cc(OC)c(OC)cc3CCN2C(=O)NCCN(C(C)C)C(C)C)cc1OC (centres undefined) | 114 to 115 |
| Cc1nn(C)c2nc(N(CC3CC3)C(=O)C3CC3)c(CN(Cc3cc(C(F)(F)F)cc(C(F)(F)F)c3)c3nnn(C)n3)cc12 | 120 to 122 |
| CCOC(=O)C(=CNc1ccc(F)cc1)C(=O)c1ccc(Cl)cc1Cl | 108 to 111 |
| CN(C)c1nc2c(NCc3ccccc3)ncnc2n1C1OC(CO)C(O)C1O (centres undefined) | 152 to 156 |
| CCOC(=O)C1=C(C)NC(C(F)F)=C(C(=O)OCC)C1c1cccc([N+](=O)[O-])c1 (centres undefined) | 148 to 149 |
| CN(CCCCC(=O)O)c1ccc(Br)cc1C=O | 72 to 73 |

| SMILES | melting point [°C] |
| --- | --- |
| CCCc1c(OCCCCCC(=O)c2c(C)c(C)c(O)c(O)c2C)ccc(C(=O)O)c1O | 169 to 170 |
| COc1c(F)c(C)c(F)c(OC)c1CO | 80 to 81 |
| CCCCCC(CC(=O)NO)C(=O)NC(C(=O)N1CCCC1CO)C(C)C (centres undefined) | 148 to 149 |
| COc1cc(OC)nc(NC(=O)NS(=O)(=O)c2ccccc2CS(=O)(=O)N(C)C)n1 | 172 to 176 |
| COc1ccc(-c2cc(=Nc3c(C)cc(C)cc3C)n(C)c(Cl)n2)cc1OC | 159 to 162 |
| COCc1c(Cl)ccc(C(=O)c2cnoc2C2CC2)c1S(C)(=O)=O | 83.6 to 84.2 |
| CCc1ccc(-c2ccc(CCc3ccc(C(F)(F)F)cc3)cc2)cc1 | 128 |
| C[C@H](NC(=O)CC(Br)C(=O)c1ccc(Br)cc1)C(=O)O (some centres undefined) | 110 to 113 |
| CCOC(=O)c1cc(C(C)=O)c(=O)[nH]c1C(=O)OCC | 101 to 110 |
| COCOc1cc(OC)c(OCOC)c(CCO)c1OC | 121 to 123 |
| COc1cc2c(cc1OC)CN(CCCc1cccc(NC(=O)c3cccc4c(=O)c5cccc(F)c5[nH]c34)c1)CC2 | 128 |
| COC(=O)NN=C(OC)OC | 78.5 to 81.5 |
| CCn1cc(C)c(NS(=O)(=O)c2ccc(NC(C)=O)cc2)nc1=O | 235 to 239 |
| CCCN(CCC)c1c(CC)nn2c(-c3ccc(OC)cc3Cl)cccc12 | 73.6 to 76 |
| CCC/C(=C\C=C\C(=O)O)c1ccc(OC)cc1 | 151 to 152 |
| CCC(CC)N(Cc1ccc(S(C)(=O)=O)cc1)S(=O)(=O)c1ccc(Cl)cc1 | 166 to 168 |
| NNc1ccnc(-c2ccc([N+](=O)[O-])o2)n1 | 220 to 222 |
| COc1cc(C(C)C)c2c(c1)S(=O)(=O)N(COC(=O)c1c(Cl)ccc(O)c1Cl)C2=O | 152 to 154 |
| CN(C)S(=O)(=O)c1ccccc1Cl | 49 to 51 |
| O=c1oc(-c2cc(C(F)(F)F)cc(C(F)(F)F)c2)ns1 | 61 to 62.5 |
| CCCSc1nsnc1O | 84 to 85 |

Second part, the molecule after the results:

| melting point [°C] | SMILES |
| --- | --- |
| 157 to 159 | O=c1[nH]c2c(c(=O)[nH]1)N=CCN2CCCCN1CCC(OC(c2ccccc2)c2ccccc2)CC1 |
| 125 to 127 | Cc1nccn1-c1ccc(OCCO)cc1 |
| 94 | O=c1c2ccccc2sc2ccc(SCCO)cc12 |
| 133 to 134 | CN(C)C(=O)c1c(-c2ccccc2)ccc2ccccc12 |
| 190 to 192 | Nc1ccc(-n2ccnc2S(=O)Cc2ccccc2N2CCOCC2)nc1 (centres undefined) |
| 210 to 212 | O=C(c1ccc(Cl)cc1)n1c2c(c3ccccc31)CC(C(=O)O)(C(=O)O)CC2 |
| 70 to 71 | O=S(CCCCl)Cc1ccccc1 (centres undefined) |
| 175 to 177 | CCCOc1ncc(I)cc1-c1nc2c(CC)nn(CCN3CCOCC3)c2c(=O)[nH]1 |
| 142 to 144 | CCCCOCCOc1ccc(-c2ccc3c(c2)C=C(C(=O)Nc2ccc(S(=O)Cc4ncon4)cc2)CCN3CC(C)C)cc1 (centres undefined) |
| 228 to 230 | CC(C)(C)OC(=O)N(Cc1ccccc1)c1ccc(O)cc1 |
| > 260 | O=C(O)c1ccc2oc(-c3ccc(Cl)c(Cl)c3)cc2c1 |
| 89 to 91 | O=S(=O)(c1ccccc1)n1ccc2c(CO)cccc21 |
| 124 to 127 | COc1c(OCc2ccccc2)cc(C(=O)Cl)cc1OCc1ccccc1 |
| 110 to 111 | Cc1nccn1-c1nc(-c2ccc(Cl)cc2)c(CCCCO)o1 |
| 62 to 63 | CON=C(C#N)c1ccccc1COc1cccc(Cl)c1 |
| 94 to 100 | CC(CCc1ccccc1)NCC(O)c1cc(C(N)=O)c2[nH]ccc2c1 (centres undefined) |
| 167 to 169 | Cn1nc2ccccc2c1C(=O)NC1CCN(Cc2ccccc2)CC1 |
| 74 to 76 | Cc1ccc(-c2c(CO)n(CC(C)C)c(=O)c3ccc(OCc4ccccc4)cc23)cc1 |
| 158 to 162 | Cc1ccc2c3c1OC(c1ccccc1)N3C(=O)C1CCCN1C2=O (centres undefined) |
| 239 to 241 | CN1C(=O)C(NC(=O)Nc2ccc(F)cc2)C(=O)N(C23CC4CC(CC(C4)C2)C3)c2ccccc21 (centres undefined) |

| melting point [°C] | SMILES |
| --- | --- |
| 181 to 183 | O=C1c2ccccc2C(=O)N1c1ccc(Cl)c2c1CC(CO)O2 (centres undefined) |
| 194 to 197 | Clc1nnc(CN2CC3(COc4cc5c(cc43)OCO5)c3ccccc32)s1 (centres undefined) |
| 148 to 150 | NC(=O)N1CCN(c2nn(-c3ccccc3F)c3ccccc23)CC1 |
| 158 to 159 | CCN1c2ncc(CCc3ccncc3)cc2C(=O)N(C)c2ccc(Cl)nc21 |
| 63 to 65 | O=C(NC(CCO)c1ccccc1Br)c1c(F)cccc1F (centres undefined) |
| 210 to 211 | CCCNc1ccc(-c2nc(=O)c3ccccc3s2)cn1 |
| 98 to 99 | O=c1c(Cl)c(Cl)cnn1CC=Cc1ccccc1 |
| 140 to 142 | C=CCC(=O)c1cnn(-c2ccccn2)c1S(N)(=O)=O |
| 173 to 176 | O=C(NO)c1ccc2c(c1)CCN(C(=O)NCCc1c[nH]c3ccccc13)C2 |
| 138 to 140 | COc1cc(C(=O)NCC2c3ccccc3CCN2CCO)cc(OC)c1OC (centres undefined) |
| 170 | CC(C)(C)c1cc(CCc2ccccc2NC(=O)NCc2ccco2)cc(C(C)(C)C)c1O |
| 142 to 144 | O=C1CCC(N2Cc3c(OCc4ccc(CN5CCN(c6ncccn6)CC5)cc4)cccc3C2=O)C(=O)N1 (centres undefined) |
| 123 to 125 | Nc1ccc2ccccc2c1[N+](=O)[O-] |
| 112 | CC(=O)N1CCC(C)(C)c2cc(F)cc(CCN3CCN(c4noc5ccccc45)CC3)c21 |
| 152 to 155 | O=C([C@H]1CCCN1C(=O)Nc1ccc2ccccc2c1)N1CCc2c([nH]c3ccccc23)C1 |
| 139 to 141 | Cn1c(C(F)(F)F)cc(=O)n(-c2ccc3snc(C4(O)N=C(c5ccccc5)NC4=O)c3c2)c1=O (centres undefined) |
| 86 | CCOC(=O)Cc1ccc(OCc2ccccc2)c2c1OCCO2 |
| 156 to 158 | CN1C(=O)[C@@H](NC(=O)CCC2CCCCC2)C[C@@H](c2ccccc2)c2ccccc21 (relative stereo) |
| 91.5 to 93.5 | O=C1c2c(-c3ccccc3)noc2CCC1CCCN1CCCCC1 (centres undefined) |
